Assay results from BindingDB's records for doi:10.1021/jm00364a029 (1983).
pKi: −log10 of the molar value.

Key:
[1] = target: cGMP-dependent 3',5'-cyclic phosphodiesterase (Homo sapiens, UniProt O00408); test: ChEBML_217498
Method: Inhibition of human lung low-affinity cGMP phosphodiesterases (10-50 uM/L)

[2] = target: cGMP-specific 3',5'-cyclic phosphodiesterase (Homo sapiens, UniProt O76074); test: ChEBML_217497
Method: Inhibition of human lung high-affinity cGMP phosphodiesterases (0.5-2 uM/L)

Sequence of cGMP-dependent 3',5'-cyclic phosphodiesterase (O00408 whole entry): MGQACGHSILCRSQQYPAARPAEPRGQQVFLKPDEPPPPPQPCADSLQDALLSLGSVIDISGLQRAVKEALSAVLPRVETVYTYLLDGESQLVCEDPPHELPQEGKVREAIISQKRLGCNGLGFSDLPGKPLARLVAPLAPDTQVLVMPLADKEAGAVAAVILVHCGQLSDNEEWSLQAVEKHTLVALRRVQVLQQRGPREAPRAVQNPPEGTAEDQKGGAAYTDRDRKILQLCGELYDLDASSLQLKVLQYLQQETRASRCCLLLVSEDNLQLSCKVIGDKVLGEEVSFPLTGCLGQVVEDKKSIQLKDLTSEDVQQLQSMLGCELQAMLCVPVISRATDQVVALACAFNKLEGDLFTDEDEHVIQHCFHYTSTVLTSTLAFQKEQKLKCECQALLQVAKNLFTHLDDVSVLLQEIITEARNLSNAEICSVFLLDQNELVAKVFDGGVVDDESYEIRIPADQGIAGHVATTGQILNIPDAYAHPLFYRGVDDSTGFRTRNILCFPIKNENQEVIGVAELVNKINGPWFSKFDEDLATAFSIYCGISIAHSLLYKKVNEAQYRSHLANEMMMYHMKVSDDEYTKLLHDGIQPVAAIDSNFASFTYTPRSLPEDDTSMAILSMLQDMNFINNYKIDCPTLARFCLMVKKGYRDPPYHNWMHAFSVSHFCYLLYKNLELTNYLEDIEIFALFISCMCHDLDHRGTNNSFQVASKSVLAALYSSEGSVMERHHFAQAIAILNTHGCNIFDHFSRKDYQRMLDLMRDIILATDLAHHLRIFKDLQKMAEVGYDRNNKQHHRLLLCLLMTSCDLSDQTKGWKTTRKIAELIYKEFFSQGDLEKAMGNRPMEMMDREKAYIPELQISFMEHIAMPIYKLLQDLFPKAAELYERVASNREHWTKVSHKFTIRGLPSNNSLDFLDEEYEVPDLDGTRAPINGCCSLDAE

pKi [1] | pKi [2] | SMILES
3.22 | 3.22 | C[C@@H](O)Cn1cnc2c1c(=O)n(C)c(=O)n2C [(R)-7-(2-hydroxypropyl)-1,3-dimethyl-1H-purine-2,6(3H,7H)-dione]
3.22 | 3.22 | CC(O)Cn1cnc2c1c(=O)n(C)c(=O)n2C (stereo unspecified) [7-(2-Hydroxy-propyl)-1,3-dimethyl-3,7-dihydro-purine-2,6-dione(Proxyphylline)]
3.15 | 3.22 | C[C@H](O)Cn1cnc2c1c(=O)n(C)c(=O)n2C [(S)-7-(2-hydroxypropyl)-1,3-dimethyl-1H-purine-2,6(3H,7H)-dione]
